# According to patent US12291504B2 (University of Pittsburgh—Of the Commonwealth System of …, priority 2018, dated 2025):
# pKi: −log10 of the molar value.
# Legend:
# SULT1A3 F222A, H226A = target: T1, SULT1A3 F222A, H226A (Homo sapiens, UniProt P0DMM9, F222A/H226A); experiment: Binding-site mutation effect on Ki CMP8, F222A, H226A; format: biochemical; settings: H226A versus wild type
# T1 construct: N-His/GST/MBP triple-tag (N, cleaved yes); made in house; host or cells: E. coli BL21(DE3)
# Procedure: Initial-Rate Studies. Initial-rate parameters for the labeled or mutant SULT1A3 constructs were determined using a previously described 1-HP assay (25). Briefly, reactions were initiated by addition of PAPS (0.50 mM, 17×Km) to a solution containing enzyme (20 nM, active sites), 1-HP (2.0 μM, ˜24×Km), and KPO4 (50 mM), pH 7.5, 25±2° C. Reactions were monitored via fluorescence change associated with the conversion of 1-HP to 1-HP-S (λex=325 nm, λem=370 nm). Keq for the 1-HP sulfonation reaction is […]. Given the reaction conditions outlined above, ≥99% of 1-HP is converted to 1-HP-S, and ˜0.4% of PAPS is converted to PAP at equilibrium. […] Reaction progress curves were analyzed to obtain initial-rate parameters as described previously (26,27).
# Inhibition studies. Inhibition parameters were determined under conditions identical to those described above (see, Initial-Rate Studies) except that [1-HP] was increased to 5.0 μM (˜61×Km) and inhibitor concentration was varied between 0.20-20×Ki. Ki was obtained using a least-squares fit to the following partial inhibition equation (25,28): v=kcat·(Ki+(1/kcat inh)·[I])/(Ki+[I]), where kcat inh is enzyme turnover at saturating substrates and allosteric inhibitor.
# Confirming the Structure. The structure was validated by testing its ability to predict the consequences of mutations on the initial-rate parameters of the enzyme. […]
# SULT1A3 = SULT1A3 (Homo sapiens, UniProt P0DMM9); experiment: Pre-steady state binding of PAP to SULT1A3 (stopped-flow fluorescence); set-up: Wild-type and mutant SULT1A3 coding regions were inserted into a pGEX-6P expression vector; N-His/GST/MBP triple-tag (N, cleaved yes); made in house; host or cells: E. coli BL21(DE3); settings: PAP release, saturating CMP8
# Procedure: The effect of CMP8 on PAP binding to SULT1A3 was monitored using a stopped-flow spectrofluorimeter (λex=290 nm, λem≥330 nm (cutoff filter)). […] Each kobs value was determined in triplicate and the averaged values are shown. kon and koff are given, respectively, by the slopes and intercepts obtained from linear least-squares fitting of the kobs vs [PAP] plots.
# (§1) Pre-Steady State Binding Studies. The pre-steady state binding of PAP to SULT1A3 was monitored via ligand-induced enzyme fluorescence changes in SULT1A3 using an Applied Photophysics SX20 stopped-flow spectrofluorimeter (32). […] All reactions were pseudo first order in [PAP]. The observed rate constant (kobs) at a given [PAP] was taken as the average of three independent progress curves each obtained from a single-exponential fit of 6-9 averaged, binding progress curves. The rate constants, kon and koff, were obtained from the slopes and intercepts predicted by linear least-squares analysis of four-points kobs vs [PAP] plots.
# Given that CMP8 interacts with the SULT1A3 cap, it was reasoned it might inhibit by stabilizing the cap-closed form(s) of the enzyme. To test this hypothesis, the microscopic rate constants for nucleotide binding and release were determined in the presence and absence of saturating CMP8. The binding reactions were monitored via intrinsic fluorescence changes associated with ligand binding (30-32) (see, Methods). The resulting kobs vs [PAP] plots are presented in FIG. 4. kon and koff are obtained, respectively, from the slopes and intercepts of the plots (30,31), see Table C. […] Thus, CMP8 does indeed slow nucleotide release by increasing Kiso and thus stabilizing the closed form of the cap.
# as §1, with “(29).” for “(32).”
# Rhesus Macaque (1A3) = Rhesus Macaque (1A3) (Macaca mulatta, UniProt A0A5F7ZQH3); experiment: Inhibition of SULT1A3 homologues in different species: Rhesus Macaque; format: biochemical
# Procedure: (§2) Compounds 12, 23 and 25 were also tested for Inhibition of SULT1A3 in different species.
# (§3) Inhibition of SULT1A3 Homologues in Different Species. SULT1A3 is only expressed in humans and higher primates. SULT1D1 is the isoform expressed in dogs and rodents that sulfonates neurotransmitters and is most similar to SULT1A3. Three synthesized allosteres (12, 23, and 25) were tested against both 1A3 and 1D1 from different species in order to explore testing in animal models. […] Mice have been engineered such that their SULT1A1/2 enzymes have been knocked out and replaced with the human versions of those isoforms.
# Dog (1D1) = Dog (1D1) (Canis lupus familiaris, UniProt A0A8I3RXJ1); experiment: Inhibition of SULT1A3 homologues in different species: Dog; format: biochemical
# Procedure: as §3, with “Compounds 12, 23 and 25 were also tested for Inhibition of SULT1A3 in different species. Inhibition” for “Inhibition”
# SULT1E1 = target: T2, SULT1E1 (Homo sapiens, UniProt P49888); experiment: SULT1E1 inhibition test; format: biochemical; settings: at 50 uM
# T2 sequence (P49888 1-294): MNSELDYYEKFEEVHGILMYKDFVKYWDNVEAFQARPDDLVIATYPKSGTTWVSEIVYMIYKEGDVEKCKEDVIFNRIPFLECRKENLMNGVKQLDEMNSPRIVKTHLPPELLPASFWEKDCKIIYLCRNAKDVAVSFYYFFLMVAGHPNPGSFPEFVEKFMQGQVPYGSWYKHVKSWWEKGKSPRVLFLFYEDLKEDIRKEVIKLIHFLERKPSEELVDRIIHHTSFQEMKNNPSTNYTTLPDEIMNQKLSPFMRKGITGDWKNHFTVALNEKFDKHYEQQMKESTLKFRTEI
# Mouse (1D1) = Mouse (1D1) (Mus musculus, UniProt Q3UZZ6); experiment: Inhibition of SULT1A3 homologues in different species: Mouse; format: biochemical
# Procedure: as §2, §3
# Sequence of Rhesus Macaque (1A3) (A0A5F7ZQH3 1-295): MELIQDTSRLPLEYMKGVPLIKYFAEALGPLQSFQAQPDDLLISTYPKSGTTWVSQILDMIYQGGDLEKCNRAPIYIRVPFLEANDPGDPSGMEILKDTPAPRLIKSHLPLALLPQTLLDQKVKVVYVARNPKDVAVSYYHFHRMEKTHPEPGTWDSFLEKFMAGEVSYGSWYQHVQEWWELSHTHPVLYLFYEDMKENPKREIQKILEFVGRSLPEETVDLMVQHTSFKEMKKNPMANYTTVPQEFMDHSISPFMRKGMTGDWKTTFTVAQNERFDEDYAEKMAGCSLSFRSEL
# Sequence of Dog (1D1) (A0A8I3RXJ1 entry or part of it): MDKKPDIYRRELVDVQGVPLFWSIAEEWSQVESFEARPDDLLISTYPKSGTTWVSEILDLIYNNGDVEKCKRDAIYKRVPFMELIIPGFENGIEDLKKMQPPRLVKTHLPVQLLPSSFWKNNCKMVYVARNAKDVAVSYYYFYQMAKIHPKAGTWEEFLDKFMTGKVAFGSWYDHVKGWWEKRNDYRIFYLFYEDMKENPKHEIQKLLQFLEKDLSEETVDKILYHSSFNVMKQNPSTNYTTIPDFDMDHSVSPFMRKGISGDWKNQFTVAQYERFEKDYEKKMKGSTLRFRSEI
# Sequence of Mouse (1D1) (Q3UZZ6 whole entry): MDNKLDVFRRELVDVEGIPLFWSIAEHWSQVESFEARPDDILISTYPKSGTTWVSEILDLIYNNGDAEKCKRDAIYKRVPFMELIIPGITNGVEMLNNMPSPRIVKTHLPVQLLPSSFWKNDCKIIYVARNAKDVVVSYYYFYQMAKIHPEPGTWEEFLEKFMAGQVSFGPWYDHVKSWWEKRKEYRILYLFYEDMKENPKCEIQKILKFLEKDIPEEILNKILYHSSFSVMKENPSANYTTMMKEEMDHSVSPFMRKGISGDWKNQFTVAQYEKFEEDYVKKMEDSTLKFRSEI
# T1 sequence (P0DMM9 whole entry F222A/H226A): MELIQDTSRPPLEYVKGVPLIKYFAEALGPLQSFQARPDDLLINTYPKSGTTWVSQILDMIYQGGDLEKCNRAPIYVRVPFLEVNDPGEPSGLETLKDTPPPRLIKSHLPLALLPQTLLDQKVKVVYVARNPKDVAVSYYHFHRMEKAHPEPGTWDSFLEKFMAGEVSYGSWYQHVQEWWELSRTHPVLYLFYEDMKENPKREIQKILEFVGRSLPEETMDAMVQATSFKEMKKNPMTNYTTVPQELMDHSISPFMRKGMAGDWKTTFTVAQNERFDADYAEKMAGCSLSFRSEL
# Sequence of SULT1A3 (P0DMM9 whole entry): as the sequence (P0DMM9 whole entry F222A/H226A) above, with A222F, A226H counted along it
SMILES,"increase in Ki CMP8 (SULT1A3 F222A, H226A)","koff (+CMP8)/koff (−CMP8), ratio of nucleotide off-rate constants (SULT1A3)",Rhesus Macaque (1A3) % inh (Rhesus Macaque (1A3)),pKi (Rhesus Macaque (1A3); parentheses one standard error),Dog (1D1) % inh (Dog (1D1)),pKi (Dog (1D1); standard error in neighbouring cell),inhibition of SULT1E1 (SULT1E1),Mouse (1D1) % inh (Mouse (1D1)),pKi (Mouse (1D1); parentheses one standard error)
"CC(C)Cc1ccc2cc(CO)ccc2n1 [Compound 8, (2-Isobutylquinolin-6-yl)methanol]",60 fold,0.41 (±0.05),,,,,,,
CC(C)Cc1ccc2cc(CCC(N)=O)ccc2n1 [Compound 12],,,97 (2) %,7.42,83 (6) %,7.11,no inhibition was detected,82 (2) %,7.10
